# Results as given in ChEMBL document CHEMBL1201862, “PubChem BioAssay data set” (2004).
#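 96-well plates; 48 h exposure; 5 concentrations. Endpoints by linear interpolation between flanking doses. Not reached: highest tested concentration assigned. Here, GI50 denotes the concentration required for 50% inhibition of growth.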 The source made the active and inactive calls. Rule as the data show it: active = GI50 up to about 1.1 µM and inactive = higher.
# Legend:
# Test in all cases: DTP human tumour cell line panel, 48 h
# EKVX = tested on: EKVX
# HOP-92 = tested on: HOP-92
# HCC 2998 = tested on: HCC 2998
# OVCAR-4 = tested on: OVCAR-4
# OVCAR-5 = tested on: OVCAR-5
# M14 = tested on: M14
# SF-268 = tested on: SF-268
# NCI-H522 = tested on: NCI-H522
# HCT-15 = tested on: HCT-15
# T47D = tested on: T47D
# A498 = tested on: A498
# MDA-MB-231 = tested on: MDA-MB-231
# SN12C = tested on: SN12C
# SK-OV-3 = tested on: SK-OV-3
# HOP-62 = tested on: HOP-62
# NCI-H23 = tested on: NCI-H23
# SW-620 = tested on: SW-620
# OVCAR-3 = tested on: OVCAR-3
# UO-31 = tested on: UO-31
Compound,GI50 (EKVX),GI50 (HOP-92),GI50 (HCC 2998),GI50 (OVCAR-4),GI50 (OVCAR-5),GI50 (M14),GI50 (SF-268),GI50 (NCI-H522),GI50 (HCT-15) [µM],GI50 (T47D),GI50 (A498),GI50 (MDA-MB-231),GI50 (SN12C),GI50 (SK-OV-3),GI50 (HOP-62),GI50 (NCI-H23),GI50 (SW-620),GI50 (OVCAR-3),GI50 (UO-31)
Cc1ccc(S(=O)(=O)Nc2cc(O)nc3c2CCC3)cc1,> 100 µM (inactive),> 100 µM (inactive),> 100 µM (inactive),57.1 µM (inactive),> 100 µM (inactive),> 100 µM (inactive),> 100 µM (inactive),> 100 µM (inactive),> 100,> 100 µM (inactive),> 100 µM (inactive),> 100 µM (inactive),> 100 µM (inactive),> 100 µM (inactive),> 100 µM (inactive),> 100 µM (inactive),> 100 µM (inactive),> 100 µM (inactive),> 100 µM (inactive)
CCOC(=O)c1cccc(/N=N/c2nc[nH]c2/C=C/C(=O)OC)c1,26.5 µM (inactive),45.1 µM (inactive),11 µM (inactive),6.58 µM (inactive),76.6 µM (inactive),13.3 µM (inactive),8.79 µM (inactive),9.38 µM (inactive),5.13,9.95 µM (inactive),22.6 µM (inactive),4.39 µM (inactive),5.97 µM (inactive),44.8 µM (inactive),6.35 µM (inactive),36.3 µM (inactive),6.47 µM (inactive),3.15 µM (inactive),8.15 µM (inactive)
COc1ccc(S(=O)(=O)N2C(=O)CCC2C(=O)NN)cc1 (configuration not stated),> 100 µM (inactive),> 100 µM (inactive),> 100 µM (inactive),> 100 µM (inactive),> 100 µM (inactive),> 100 µM (inactive),–,25.5 µM (inactive),> 100,> 100 µM (inactive),> 100 µM (inactive),> 100 µM (inactive),> 100 µM (inactive),> 100 µM (inactive),> 100 µM (inactive),> 100 µM (inactive),> 100 µM (inactive),> 100 µM (inactive),> 100 µM (inactive)
N=C(N)NS(=O)(=O)c1ccc(NNc2c3ccccc3nc3c(C(=O)Nc4ccc(S(=O)(=O)Nc5ncccn5)cc4)cccc23)cc1,31.8 µM (inactive),67 µM (inactive),50.8 µM (inactive),29.2 µM (inactive),74.8 µM (inactive),20.4 µM (inactive),47.2 µM (inactive),19.3 µM (inactive),34.1,39 µM (inactive),> 100 µM (inactive),60.1 µM (inactive),42.2 µM (inactive),–,45.3 µM (inactive),35.3 µM (inactive),37.5 µM (inactive),38.4 µM (inactive),22.4 µM (inactive)
CN(C)C(=O)C(NCCO)c1ccccc1 (configuration not stated),> 100 µM (inactive),> 100 µM (inactive),> 100 µM (inactive),> 100 µM (inactive),> 100 µM (inactive),> 100 µM (inactive),> 100 µM (inactive),> 100 µM (inactive),> 100,53.3 µM (inactive),> 100 µM (inactive),> 100 µM (inactive),> 100 µM (inactive),> 100 µM (inactive),> 100 µM (inactive),83 µM (inactive),> 100 µM (inactive),62.1 µM (inactive),> 100 µM (inactive)
CCOC(=O)c1csc(C(CSCc2ccc(OC)cc2)N2C(=O)c3ccccc3C2=O)n1 (configuration not stated),> 100 µM (inactive),> 100 µM (inactive),> 100 µM (inactive),> 100 µM (inactive),> 100 µM (inactive),> 100 µM (inactive),> 100 µM (inactive),23.5 µM (inactive),62.7,69.2 µM (inactive),> 100 µM (inactive),> 100 µM (inactive),> 100 µM (inactive),> 100 µM (inactive),> 100 µM (inactive),> 100 µM (inactive),50.2 µM (inactive),> 100 µM (inactive),> 100 µM (inactive)
N#CC(NCCc1ccccc1)c1ccc(C(C#N)NCCc2ccccc2)cc1 (configuration not stated),> 100 µM (inactive),> 100 µM (inactive),83.9 µM (inactive),> 100 µM (inactive),> 100 µM (inactive),70.6 µM (inactive),69.3 µM (inactive),> 100 µM (inactive),> 100,> 100 µM (inactive),> 100 µM (inactive),> 100 µM (inactive),97.5 µM (inactive),> 100 µM (inactive),–,30.7 µM (inactive),32.8 µM (inactive),> 100 µM (inactive),93.1 µM (inactive)
N#C/C(=C/n1c(=S)[nH]c2ccccc21)C(N)=O,> 100 µM (inactive),11 µM (inactive),> 100 µM (inactive),> 100 µM (inactive),> 100 µM (inactive),> 100 µM (inactive),> 100 µM (inactive),> 100 µM (inactive),> 100,> 100 µM (inactive),> 100 µM (inactive),> 100 µM (inactive),> 100 µM (inactive),> 100 µM (inactive),> 100 µM (inactive),> 100 µM (inactive),> 100 µM (inactive),> 100 µM (inactive),> 100 µM (inactive)
CSC1=C(c2ccc(Cl)cc2)SC(N2CCCCC2)N1c1ccc([N+](=O)[O-])cc1 (configuration not stated),40.6 µM (inactive),26.7 µM (inactive),41.9 µM (inactive),23.3 µM (inactive),28 µM (inactive),18.5 µM (inactive),41.3 µM (inactive),24.2 µM (inactive),26.1,23.9 µM (inactive),19 µM (inactive),27.1 µM (inactive),–,30.9 µM (inactive),20 µM (inactive),23 µM (inactive),38.7 µM (inactive),21.8 µM (inactive),32.7 µM (inactive)
O=C1C=C(NCCOCCO)C(=O)c2c(O)ccc(O)c21,–,24.3 µM (inactive),17.5 µM (inactive),18 µM (inactive),> 100 µM (inactive),22.5 µM (inactive),31.8 µM (inactive),24 µM (inactive),22.9,23.8 µM (inactive),> 100 µM (inactive),33.2 µM (inactive),–,33.4 µM (inactive),58.6 µM (inactive),23.4 µM (inactive),18.1 µM (inactive),23.6 µM (inactive),59.8 µM (inactive)
COc1ccccc1N(CN1C(=O)CCC1C(=O)O)C(C)=O (configuration not stated),> 100 µM (inactive),> 100 µM (inactive),> 100 µM (inactive),> 100 µM (inactive),> 100 µM (inactive),> 100 µM (inactive),53 µM (inactive),> 100 µM (inactive),> 100,> 100 µM (inactive),> 100 µM (inactive),> 100 µM (inactive),> 100 µM (inactive),> 100 µM (inactive),> 100 µM (inactive),> 100 µM (inactive),> 100 µM (inactive),> 100 µM (inactive),> 100 µM (inactive)
N#Cc1ccc(OCc2ccc3nc(-c4ccccc4)c(Cl)nc3c2)cc1,> 100 µM (inactive),> 100 µM (inactive),> 100 µM (inactive),> 100 µM (inactive),> 100 µM (inactive),> 100 µM (inactive),> 100 µM (inactive),> 100 µM (inactive),> 100,> 100 µM (inactive),> 100 µM (inactive),> 100 µM (inactive),> 100 µM (inactive),–,42.7 µM (inactive),> 100 µM (inactive),> 100 µM (inactive),> 100 µM (inactive),> 100 µM (inactive)
CC[C@@]1(O)C(=O)OCc2c1cc1n(c2=O)Cc2c-1nc1ccccc1c2/C=N\NC(=O)C(N)Cc1c[nH]cn1 (some centres not stated),7.45 µM (inactive),1.1 µM (active),1.51 µM (inactive),4.41 µM (inactive),3.56 µM (inactive),0.324 µM (active),0.0545 µM (active),0.372 µM (active),1.34,0.158 µM (active),0.857 µM (active),3.4 µM (inactive),0.0673 µM (active),0.234 µM (active),0.0524 µM (active),0.111 µM (active),0.148 µM (active),3.95 µM (inactive),0.348 µM (active)
CCOC(=O)Oc1ccc2c(c1)c(=O)c1c(NCCCN(CC)CC)ccc3nnn2c31,10.7 µM (inactive),6.76 µM (inactive),1.43 µM (inactive),0.33 µM (active),16.6 µM (inactive),12.3 µM (inactive),11.6 µM (inactive),1.56 µM (inactive),3.09,16.8 µM (inactive),11.1 µM (inactive),1.12 µM (inactive),3.67 µM (inactive),11.3 µM (inactive),1.75 µM (inactive),13.3 µM (inactive),2.24 µM (inactive),5.5 µM (inactive),0.598 µM (active)
Fc1ccc(-c2sc(-c3cccs3)cc2Cc2cccs2)cc1,> 100 µM (inactive),> 100 µM (inactive),> 100 µM (inactive),> 100 µM (inactive),> 100 µM (inactive),> 100 µM (inactive),> 100 µM (inactive),> 100 µM (inactive),> 100,> 100 µM (inactive),> 100 µM (inactive),> 100 µM (inactive),> 100 µM (inactive),> 100 µM (inactive),–,> 100 µM (inactive),> 100 µM (inactive),> 100 µM (inactive),> 100 µM (inactive)
